Test results taken from patent US20220370453A1 (Storm Therapeutics Ltd, priority 2019, published 2022).
Values belong to the molecule of their own block, whether it stands above or below them.

Columns and labels:
[1] = molecular target: T1, BCDIN3D (Homo sapiens, UniProt Q7Z5W3); experiment: BCDIN3D IC50 RFMS (RapidFire) assay with mini-helix; type: biochemical; details: mini-helix substrate 0.2 μM, SAM 6 μM, 25 nM enzyme
T1 sequence (Q7Z5W3 1-292): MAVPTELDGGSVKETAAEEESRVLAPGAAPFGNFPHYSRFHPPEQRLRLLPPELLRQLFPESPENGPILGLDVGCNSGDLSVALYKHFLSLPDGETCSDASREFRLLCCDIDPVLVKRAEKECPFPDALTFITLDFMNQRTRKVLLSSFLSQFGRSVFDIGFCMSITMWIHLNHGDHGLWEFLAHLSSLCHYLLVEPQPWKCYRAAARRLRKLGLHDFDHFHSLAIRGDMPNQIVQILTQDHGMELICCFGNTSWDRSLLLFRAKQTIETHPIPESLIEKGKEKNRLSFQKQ
Outline: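 25 nM enzyme preincubated 10 min at room temperature with compound (1% DMSO) in 25 mM Tris pH 8.0, 10 mM DTT, 1 mM EDTA, 0.03% BSA. Reaction started with 0.2 μM mini-helix plus 6 μM SAM, run 1 h at 37 °C, quenched with TCA; SAH product quantified by RapidFire MS against isotopic SAH standards.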

[2] = molecular target: T1, BCDIN3D; experiment: BCDIN3D InCellPulse thermal stability assay in transfected A549 cells; type: cell-based; details: transiently transfected A549 cells, heat shock 58° C. 15 min
Outline: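 A549 cells transiently expressing BCDIN3D N-terminally fused to ePL ProLabel tag, 1500 cells/well, pre-incubated 1 h at 37 °C with compound (0.6% DMSO). Heat shock 58 °C for 15 min; remaining soluble fusion detected by split β-galactosidase complementation luminescence.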

- IC50 [1]: 3.32 µM
- IC50 [2]: 2.28 µM
Structure (SMILES): Cc1ccc(CNc2nc(NCC(C)N)nc3c2cnn3C)cc1Cl (stereo not drawn) [Compound 3.01, 6-N-(2-aminopropyl)-4-N-[(3-chloro-4-methylphenyl)methyl]-1-methylpyrazolo[3,4-d]pyrimidine-4,6-diamine]

- IC50 [1]: 0.665 µM
- IC50 [2]: 1.45 µM
Structure (SMILES): Cc1ccc(CNc2nc(NC[C@@H](C)N)nc3c2cnn3C)cc1Cl [Compound 3.04, 6-N-[(2R)-2-aminopropyl]-4-N-[(3-chloro-4-methylphenyl)methyl]-1-methylpyrazolo[3,4-d]pyrimidine-4,6-diamine]

- IC50 [1]: 1.44 µM
- IC50 [2]: 1.44 µM
Structure (SMILES): CC[C@@H](CN)Nc1nc(NCc2ccc(C)c(Cl)c2)c2cnn(C)c2n1 [Compound 3.05]

- IC50 [1]: 3.42 µM
- IC50 [2]: 4.42 µM
Structure (SMILES): CC[C@H](N)CNc1nc(NCc2ccc(C)c(Cl)c2)c2cnn(C)c2n1 [Compound 3.06, 6-N-[(2S)-2-aminobutyl]-4-N-[(3-chloro-4-methylphenyl)methyl]-1-methylpyrazolo[3,4-d]pyrimidine-4,6-diamine]

- IC50 [1]: 0.299 µM
- IC50 [2]: 0.664 µM
Structure (SMILES): CC[C@@H](N)CNc1nc(NCc2ccc(C)c(Cl)c2)c2cnn(C)c2n1 [Compound 3.07, 6-N-[(2R)-2-aminobutyl]-4-N-[(3-chloro-4-methylphenyl)methyl]-1-methylpyrazolo[3,4-d]pyrimidine-4,6-diamine]

- IC50 [1]: 0.0505 µM
- IC50 [2]: 0.259 µM
Structure (SMILES): Cn1ncc2c(Nc3ccc(C(F)(F)F)cc3)nc(NCC3(N)CCC3)nc21 [Compound 3.08, N6-[(1-aminocyclobutyl)methyl]-1-methyl-N4-[4-(trifluoromethyl)phenyl]pyrazolo[3,4-d]pyrimidine-4,6-diamine]

The remaining lines, values behind:

Structure (SMILES): Cn1ncc2c(Nc3ccc(OC(F)F)cc3)nc(NCC3(N)CC3)nc21 [Compound 2.34, 6-N-[(1-aminocyclopropyl)methyl]-4-N-[4-(difluoromethoxy)phenyl]-1-methylpyrazolo[3,4-d]pyrimidine-4,6-diamine]
- IC50 [1]: 0.201 µM
- IC50 [2]: 1.42 µM

Structure (SMILES): Cn1ncc2c(Nc3cccc(Cl)c3)nc(NCC3(N)CC3)nc21 [Compound 2.35, 6-N-[(1-aminocyclopropyl)methyl]-4-N-(3-chlorophenyl)-1-methylpyrazolo[3,4-d]pyrimidine-4,6-diamine]
- IC50 [1]: 0.26 µM
- IC50 [2]: 1.98 µM

Structure (SMILES): Cn1ncc2c(Nc3ccc(C(F)F)cc3)nc(NCC3(N)CC3)nc21 [Compound 2.36, 6-N-[(1-aminocyclopropyl)methyl]-4-N-[4-(difluoromethyl)phenyl]-1-methylpyrazolo[3,4-d]pyrimidine-4,6-diamine]
- IC50 [1]: 0.138 µM
- IC50 [2]: 1.98 µM

Structure (SMILES): Cn1ncc2c(NC34CC(C#N)(C3)C4)nc(NCC3(N)CC3)nc21 [Compound 2.37, 3-[[6-[(1-aminocyclopropyl)methylamino]-1-methylpyrazolo[3,4-d]pyrimidin-4-yl]amino]bicyclo[1.1.1]pentane-1-carbonitrile]
- IC50 [1]: 8.6 µM
- IC50 [2]: 16.5 µM

Structure (SMILES): Cn1ncc2c(Nc3ccc(F)c(F)c3)nc(NCC3(N)CC3)nc21 [Compound 2.39, 6-N-[(1-aminocyclopropyl)methyl]-4-N-(3,4-difluorophenyl)-1-methylpyrazolo[3,4-d]pyrimidine-4,6-diamine]
- IC50 [1]: 0.35 µM
- IC50 [2]: 2.13 µM

Structure (SMILES): Cn1ncc2c(Nc3ccc(Cl)c(Cl)c3)nc(NCC3(N)CC3)nc21 [Compound 2.40, 6-N-[(1-aminocyclopropyl)methyl]-4-N-(3,4-dichlorophenyl)-1-methylpyrazolo[3,4-d]pyrimidine-4,6-diamine]
- IC50 [1]: 0.0333 µM
- IC50 [2]: 0.234 µM

Structure (SMILES): COc1cc(Nc2nc(NCC3(N)CC3)nc3c2cnn3C)ccc1Cl [Compound 2.41, 6-N-[(1-aminocyclopropyl)methyl]-4-N-(4-chloro-3-methoxyphenyl)-1-methylpyrazolo[3,4-d]pyrimidine-4,6-diamine]
- IC50 [1]: 0.211 µM
- IC50 [2]: 1.61 µM

Structure (SMILES): COc1ccc(CNc2nc(NCC3(N)CC3)nc3c2cnn3C)c(OC)c1 [Compound 2.42, N6-[(1-aminocyclopropyl)methyl]-N4-[(2,4-dimethoxyphenyl)methyl]-1-methyl-pyrazolo[3,4-d]pyrimidine-4,6-diamine]
- IC50 [1]: 1.26 µM
- IC50 [2]: 2.99 µM

Structure (SMILES): Cn1ncc2c(NC34CC(F)(C3)C4)nc(NCC3(N)CC3)nc21 [Compound 2.43, N6-[(1-aminocyclopropyl)methyl]-N4-{3-fluorobicyclo[1.1.1]pentan-1-yl}-1-methyl-1H-pyrazolo[3,4-d]pyrimidine-4,6-diamine]
- IC50 [1]: 2.79 µM
- IC50 [2]: 5.94 µM

Structure (SMILES): Cn1ncc2c(Nc3ccc(C(F)(F)F)cc3)nc(NCC3(N)CC3)nc21 [Compound 2.44, 6-N-[(1-aminocyclopropyl)methyl]-1-methyl-4-N-[4-(trifluoromethyl)phenyl]pyrazolo[3,4-d]pyrimidine-4,6-diamine]
- IC50 [1]: 0.0565 µM
- IC50 [2]: 0.329 µM

Structure (SMILES): Cn1ncc2c(Nc3ccc(C(F)(F)F)nc3)nc(NCC3(N)CC3)nc21 [Compound 2.45, 6-N-[(1-aminocyclopropyl)methyl]-1-methyl-4-N-[6-(trifluoromethyl)pyridin-3-yl]pyrazolo[3,4-d]pyrimidine-4,6-diamine]
- IC50 [1]: 0.424 µM
- IC50 [2]: 2.47 µM

Structure (SMILES): Cn1ncc2c(Nc3ccc(Cl)cn3)nc(NCC3(N)CC3)nc21 [Compound 2.46, 6-N-[(1-aminocyclopropyl)methyl]-4-N-(5-chloropyridin-2-yl)-1-methylpyrazolo[3,4-d]pyrimidine-4,6-diamine]
- IC50 [1]: 2.1 µM
- IC50 [2]: 6.53 µM

Structure (SMILES): Cn1ncc2c(Nc3cnc(C(F)(F)F)cn3)nc(NCC3(N)CC3)nc21 [Compound 2.47, N6-[(1-aminocyclopropyl)methyl]-1-methyl-N4-[5-(trifluoromethyl)pyrazin-2-yl]pyrazolo[3,4-d]pyrimidine-4,6-diamine]
- IC50 [1]: 4.52 µM
- IC50 [2]: 8.3 µM

Structure (SMILES): CCn1ncc2c(Nc3ccc(C(F)(F)F)cc3)nc(NCC3(N)CC3)nc21 [Compound 2.48, 6-N-[(1-aminocyclopropyl)methyl]-1-ethyl-4-N-[4-(trifluoromethyl)phenyl]pyrazolo[3,4-d]pyrimidine-4,6-diamine]
- IC50 [1]: 1.08 µM
- IC50 [2]: 2.43 µM

Structure (SMILES): [2H]C([2H])([2H])n1ncc2c(Nc3ccc(C(F)(F)F)cc3)nc(NCC3(N)CC3)nc21 [Compound 2.49, N6-[(1-aminocyclopropyl)methyl]-1-(trideuteriomethyl)-N4-[4-(trifluoromethyl)phenyl]pyrazolo[3,4-d]pyrimidine-4,6-diamine]
- IC50 [1]: 0.05 µM
- IC50 [2]: 0.379 µM

Structure (SMILES): [2H]C([2H])([2H])n1ncc2c(Nc3ccc(C(F)(F)F)nc3)nc(NCC3(N)CC3)nc21 [Compound 2.50, N6-[(1-aminocyclopropyl)methyl]-1-(trideuteriomethyl)-N4-[6-(trifluoromethyl)-3-pyridyl]pyrazolo[3,4-d]pyrimidine-4,6-diamine]
- IC50 [1]: 0.344 µM
- IC50 [2]: 2.98 µM

Structure (SMILES): C#CCCC1(CCOc2ccc(CNc3nc(NCC4(N)CC4)nc4c3cnn4C)cc2Cl)N=N1 [Compound 2.51, 6-N-[(1-aminocyclopropyl)methyl]-4-N-[[4-[2-(3-but-3-ynyldiazirin-3-yl)ethoxy]-3-chlorophenyl]methyl]-1-methylpyrazolo[3,4-d]pyrimidine-4,6-diamine]
- IC50 [1]: 0.179 µM
- IC50 [2]: 0.252 µM

Structure (SMILES): Cn1ncc2c(Nc3ccc(C(F)(F)F)cc3)cc(NCC3(N)CC3)nc21 [Compound 2.52, N6-[(1-Aminocyclopropyl)methyl]-1-methyl-N4-[4-(trifluoromethyl)phenyl]pyrazolo[3,4-b]pyridine-4,6-diamine]
- IC50 [1]: 6.9 µM
- IC50 [2]: 8.89 µM
